From patent US20160090383A1, “ANTIBACTERIAL PHTHALIDE DERIVATIVES” (priority 2013, published 2016)
In brackets after ≈: the same amount, converted by molar mass.

Columns and labels:
Assay in all cases: Bacterial growth minimal inhibitory concentration (microdilution, CLSI M7-A7)
Assay type in all cases: cell-based
[1] = tested on: Enterococcus faecium A949; details: multiply-resistant strain (quinolone-resistant and vancomycin-resistant), cation-adjusted Mueller-Hinton Broth; for MIC: Enterococcus faecium, A949, read-out: MIC for E. faecium A949
Description: (§1) Minimal Inhibitory Concentrations (MICs; […]) were determined in cation-adjusted Mueller-Hinton Broth by a microdilution method following the description given in “Methods for Dilution Antimicrobial Susceptibility Tests for Bacteria that Grow Aerobically”, Approved standard, 7th ed., Clinical and Laboratory Standards Institute (CLSI) Document M7-A7, Wayne, Pa., USA, 2006.

[2] = tested on: Moraxella catarrhalis A894; details: quinolone-sensitive strain, cation-adjusted Mueller-Hinton Broth; for MIC: Moraxella catarrhalis, A894
Description: as §1

[3] = tested on: Staphylococcus aureus A798; details: multiply-resistant strain (quinolone-resistant and methicillin-resistant), cation-adjusted Mueller-Hinton Broth; for MIC: Staphylococcus aureus, A798, read-out: MIC for S. aureus A798
Description: as §1

[4] = tested on: Staphylococcus aureus ATCC29213; details: methicillin-sensitive and quinolone-sensitive strain, cation-adjusted Mueller-Hinton Broth; for MIC: Staphylococcus aureus, ATCC29213, read-out: MIC for S. aureus ATCC29213
Description: as §1

[5] = tested on: Streptococcus pneumonia ATTC49619; details: quinolone-sensitive strain, cation-adjusted Mueller-Hinton Broth; for MIC: Streptococcus pneumoniae, ATTC49619, read-out: MIC for S. pneumonia ATTC49619
Description: as §1

Row | Molecule | MIC for E. faecium A949 [1] | MIC for M. catarrhalis A894 [2] | MIC for S. aureus A798 [3] | MIC for S. aureus ATCC29213 [4] | MIC for S. pneumonia ATTC49619 [5] | MIC [1] | MIC [2] | MIC [3] | MIC [4] | MIC [5]
1 | (S)-3-Oxo-5-phenyl-1,3-dihydro-isobenzofuran-1-carboxylic acid [2-((R)-9-fluoro-4-oxo-1,2-dihydro-4H-pyrrolo[3,2,1-ij]quinolin-1-ylamino)-ethyl]-amide and (S)-3-Oxo-5-phenyl-1,3-dihydro-isobenzofuran-1-carboxylic acid [2-((R)-9-fluoro-4-oxo-1,2-dihydro-4H-pyrrolo[3,2,1-ij]quinolin-1-ylamino)-ethyl]-amide [Example 14] | 0.5 µg/mL | 4 µg/mL | 0.125 µg/mL | 0.125 µg/mL | 2 µg/mL | – | – | – | – | –
2 | O=C1OC(CCNCCn2c(=O)ccc3ccc(F)cc32)c2ccc(-c3ccc(F)cc3F)cc21 (racemic) [Example 15, rac-1-(2-{2-[5-(2,4-Difluoro-phenyl)-3-oxo-1,3-dihydro-isobenzofuran-1-yl]-ethylamino}-ethyl)-7-fluoro-1H-quinolin-2-one] | – | – | – | – | – | 0.5 µg/mL (≈ 1.04 µM) | 4 µg/mL (≈ 8.36 µM) | 1 µg/mL (≈ 2.09 µM) | 0.25 µg/mL (≈ 0.522 µM) | 0.5 µg/mL (≈ 1.04 µM)
3 | N—((R)-9-Fluoro-4-oxo-1,2-dihydro-4H-pyrrolo[3,2,1-ij]quinolin-1-ylmethyl)-2-((R)-3-oxo-5-phenyl-1,3-dihydro-isobenzofuran-1-yl)-acetamide and N—((R)-9-Fluoro-4-oxo-1,2-dihydro-4H-pyrrolo[3,2,1-ij]quinolin-1-ylmethyl)-2-((S)-3-oxo-5-phenyl-1,3-dihydro-isobenzofuran-1-yl)-acetamide [Example 1] | 0.125 µg/mL | 0.25 µg/mL | ≦0.016 mg/L | ≦0.016 mg/L | 0.125 µg/mL | – | – | – | – | –
4 | O=C(Cn1c(=O)ccc2ccc(F)cc21)NCCC1OC(=O)c2cc(-c3cc(F)ccc3F)ccc21 (racemic) [Example 19, rac-N-{2-[5-(2,5-Difluoro-phenyl)-3-oxo-1,3-dihydro-isobenzofuran-1-yl]-ethyl}-2-(7-fluoro-2-oxo-2H-quinolin-1-yl)-acetamide] | – | – | – | – | – | 0.25 µg/mL (≈ 0.508 µM) | 0.25 µg/mL (≈ 0.508 µM) | 0.125 µg/mL (≈ 0.254 µM) | 0.063 µg/mL (≈ 0.128 µM) | 0.5 µg/mL (≈ 1.02 µM)
5 | O=C1OC(C(=O)NCCCn2c(=O)ccc3ccc(F)cc32)c2ccc(C3=CCCCC3)cc21 (racemic) [Example 21, rac-5-Cyclohex-1-enyl-3-oxo-1,3-dihydro-isobenzofuran-1-carboxylic acid [3-(7-fluoro-2-oxo-2H-quinolin-1-yl)-propyl]-amide] | – | – | – | – | – | 4 µg/mL (≈ 8.69 µM) | 2 µg/mL (≈ 4.34 µM) | 0.125 µg/mL (≈ 0.271 µM) | 0.125 µg/mL (≈ 0.271 µM) | 4 µg/mL (≈ 8.69 µM)
6 | (S)-9-Fluoro-1-[3-((R)-3-oxo-5-phenyl-1,3-dihydro-isobenzofuran-1-yl)-propylamino]-1,2-dihydro-pyrrolo[3,2,1-ij]quinolin-4-one and (S)-9-Fluoro-1-[3-((S)-3-oxo-5-phenyl-1,3-dihydro-isobenzofuran-1-yl)-propylamino]-1,2-dihydro-pyrrolo[3,2,1-ij]quinolin-4-one [Example 7] | 0.125 µg/mL | 2 µg/mL | 0.125 µg/mL | 0.031 µg/mL | 0.125 µg/mL | – | – | – | – | –
7 | O=C(CC1OC(=O)c2cc(-c3ccccc3F)ccc21)NCCn1c(=O)ccc2ccc(F)cc21 (racemic) [Example 6, rac-N-[2-(7-Fluoro-2-oxo-2H-quinolin-1-yl)-ethyl]-2-[5-(2-fluoro-phenyl)-3-oxo-1,3-dihydro-isobenzofuran-1-yl]acetamide] | – | – | – | – | – | 0.25 µg/mL (≈ 0.527 µM) | 2 µg/mL (≈ 4.22 µM) | 0.25 µg/mL (≈ 0.527 µM) | 0.063 µg/mL (≈ 0.133 µM) | 0.5 µg/mL (≈ 1.05 µM)
8 | O=C(CC1OC(=O)c2cc(-c3cccc(F)c3)ccc21)NCCn1c(=O)ccc2ccc(F)cc21 (racemic) [Example 5, rac-N-[2-(7-Fluoro-2-oxo-2H-quinolin-1-yl)-ethyl]-2-[5-(3-fluoro-phenyl)-3-oxo-1,3-dihydro-isobenzofuran-1-yl]-acetamide] | – | – | – | – | – | 0.25 µg/mL (≈ 0.527 µM) | 1 µg/mL (≈ 2.11 µM) | 0.25 µg/mL (≈ 0.527 µM) | 0.063 µg/mL (≈ 0.133 µM) | 0.5 µg/mL (≈ 1.05 µM)
9 | O=C(CC1OC(=O)c2cc(-c3ccccc3)ccc21)NCCn1c(=O)ccc2ccc(F)cc21 (racemic) [Example 4, rac-N-[2-(7-Fluoro-2-oxo-2H-quinolin-1-yl)-ethyl]-2-(3-oxo-5-phenyl-1,3-dihydro-isobenzofuran-1-yl)-acetamide] | – | – | – | – | – | 0.5 µg/mL (≈ 1.1 µM) | 8 µg/mL (≈ 17.5 µM) | 0.5 µg/mL (≈ 1.1 µM) | 0.125 µg/mL (≈ 0.274 µM) | 1 µg/mL (≈ 2.19 µM)
10 | O=C(CC1OC(=O)c2cc(-c3cc(F)ccc3F)ccc21)NCCn1c(=O)ccc2ccc(F)cc21 (racemic) [Example 9, rac-2-[5-(2,5-Difluoro-phenyl)-3-oxo-1,3-dihydro-isobenzofuran-1-yl]-N-[2-(7-fluoro-2-oxo-2H-quinolin-1-yl)-ethyl]-acetamide] | – | – | – | – | – | 0.25 µg/mL (≈ 0.508 µM) | 0.125 µg/mL (≈ 0.254 µM) | 0.125 µg/mL (≈ 0.254 µM) | 0.031 µg/mL (≈ 0.063 µM) | 0.25 µg/mL (≈ 0.508 µM)
11 | CC(C)=Cc1ccc2c(c1)C(=O)OC2CCNC(=O)Cn1c(=O)ccc2ccc(F)cc21 (racemic) [Example 25, rac-2-(7-Fluoro-2-oxo-2H-quinolin-1-yl)-N-{2-[5-(2-methyl-propenyl)-3-oxo-1,3-dihydro-isobenzofuran-1-yl]-ethyl}-acetamide] | – | – | – | – | – | 0.5 µg/mL (≈ 1.15 µM) | 4 µg/mL (≈ 9.21 µM) | 0.25 µg/mL (≈ 0.575 µM) | 0.063 µg/mL (≈ 0.145 µM) | 1 µg/mL (≈ 2.3 µM)
12 | O=C(Cn1c(=O)ccc2ccc(F)cc21)NCCC1OC(=O)c2cc(-c3ccccc3)ccc21 (racemic) [Example 18, rac-2-(7-Fluoro-2-oxo-2H-quinolin-1-yl)-N-[2-(3-oxo-5-phenyl-1,3-dihydro-isobenzofuran-1-yl)-ethyl]-acetamide] | – | – | – | – | – | 0.5 µg/mL (≈ 1.1 µM) | > 8 µg/mL | 2 µg/mL (≈ 4.38 µM) | 0.25 µg/mL (≈ 0.548 µM) | 4 µg/mL (≈ 8.76 µM)
13 | O=C1OC(CCNCCn2c(=O)ccc3ccc(F)cc32)c2ccc(-c3ccccc3)cc21 (racemic) [Example 3, rac-7-Fluoro-1-{2-[2-(3-oxo-5-phenyl-1,3-dihydro-isobenzofuran-1-yl)-ethylamino]-ethyl}-1H-quinolin-2-one] | – | – | – | – | – | 0.25 µg/mL (≈ 0.565 µM) | 1 µg/mL (≈ 2.26 µM) | 0.125 µg/mL (≈ 0.282 µM) | 0.031 µg/mL (≈ 0.0701 µM) | 0.125 µg/mL (≈ 0.282 µM)
14 | O=C(CC1OC(=O)c2cc(-c3cc(F)cc(F)c3)ccc21)NCCn1c(=O)ccc2ccc(F)cc21 (racemic) [Example 11, rac-2-[5-(3,5-Difluoro-phenyl)-3-oxo-1,3-dihydro-isobenzofuran-1-yl]-N-[2-(7-fluoro-2-oxo-2H-quinolin-1-yl)-ethyl]-acetamide] | – | – | – | – | – | 0.25 µg/mL (≈ 0.508 µM) | 0.125 µg/mL (≈ 0.254 µM) | 0.25 µg/mL (≈ 0.508 µM) | 0.031 µg/mL (≈ 0.063 µM) | 0.25 µg/mL (≈ 0.508 µM)
15 | rac-5-(2,5-Difluoro-phenyl)-3-oxo-1,3-dihydro-isobenzofuran-1-carboxylic acid [3-(7-fluoro-2-oxo-2H-quinolin-1-yl)-propyl]-amide [Example 20] | 1 µg/mL | 0.25 µg/mL | 0.063 µg/mL | 0.063 µg/mL | 2 µg/mL | – | – | – | – | –
16 | O=C(Cn1c(=O)ccc2ccc(F)cc21)NCCC1OC(=O)c2cc(C3=CCCCC3)ccc21 (racemic) [Example 22, rac-N-[2-(5-Cyclohex-1-enyl-3-oxo-1,3-dihydro-isobenzofuran-1-yl)-ethyl]-2-(7-fluoro-2-oxo-2H-quinolin-1-yl)-acetamide] | – | – | – | – | – | 0.5 µg/mL (≈ 1.09 µM) | 1 µg/mL (≈ 2.17 µM) | 0.125 µg/mL (≈ 0.271 µM) | 0.031 µg/mL (≈ 0.0673 µM) | 1 µg/mL (≈ 2.17 µM)
17 | O=C(CC1OC(=O)c2cc(C3=CCCC3)ccc21)NCCn1c(=O)ccc2ccc(F)cc21 (racemic) [Example 12, rac-2-(5-Cyclopent-1-enyl-3-oxo-1,3-dihydro-isobenzofuran-1-yl)-N-[2-(7-fluoro-2-oxo-2H-quinolin-1-yl)-ethyl]-acetamide] | – | – | – | – | – | 0.25 µg/mL (≈ 0.56 µM) | 1 µg/mL (≈ 2.24 µM) | 0.25 µg/mL (≈ 0.56 µM) | 0.031 µg/mL (≈ 0.0694 µM) | 2 µg/mL (≈ 4.48 µM)
18 | O=C(CC1OC(=O)c2cc(C3=CCCCC3)ccc21)NCCn1c(=O)ccc2ccc(F)cc21 (racemic) [Example 16, rac-2-(5-Cyclohex-1-enyl-3-oxo-1,3-dihydro-isobenzofuran-1-yl)-N-[2-(7-fluoro-2-oxo-2H-quinolin-1-yl)-ethyl]-acetamide] | – | – | – | – | – | 0.25 µg/mL (≈ 0.543 µM) | 0.5 µg/mL (≈ 1.09 µM) | 0.063 µg/mL (≈ 0.137 µM) | ≤ 0.016 µg/mL | 0.5 µg/mL (≈ 1.09 µM)
19 | CC(C)=Cc1ccc2c(c1)C(=O)OC2CC(=O)NCCn1c(=O)ccc2ccc(F)cc21 (racemic) [Example 17, rac-N-[2-(7-Fluoro-2-oxo-2H-quinolin-1-yl)-ethyl]-2-[5-(2-methyl-propenyl)-3-oxo-1,3-dihydro-isobenzofuran-1-yl]-acetamide] | – | – | – | – | – | 0.063 µg/mL (≈ 0.145 µM) | 0.5 µg/mL (≈ 1.15 µM) | ≤ 0.016 µg/mL | ≤ 0.016 µg/mL | 0.5 µg/mL (≈ 1.15 µM)
20 | O=C1OC(C(=O)NCCCn2c(=O)ccc3ccc(F)cc32)c2ccc(-c3ccccc3)cc21 (racemic) [Example 13, rac-3-Oxo-5-phenyl-1,3-dihydro-isobenzofuran-1-carboxylic acid [3-(7-fluoro-2-oxo-2H-quinolin-1-yl)-propyl]-amide] | – | – | – | – | – | 0.5 µg/mL (≈ 1.1 µM) | > 8 µg/mL | 0.125 µg/mL (≈ 0.274 µM) | 0.063 µg/mL (≈ 0.138 µM) | 1 µg/mL (≈ 2.19 µM)
